From US12202840B2, “Compounds for the treatment or alleviation of disorders associated with Tau aggregates” (AC Immune SA, priority 2018, dated 2025)

Legend:
Assay type in all cases: in vivo
rTg4510 mice [1] = assay: Morris Water Maze behavioral test, study of Example 1 and Example 12; details: once daily by gavage 12.5 weeks, Example 1 at 7 and 20 mg/kg, Example 12 at 20 mg/kg, vs vehicle treated rTg4510, FIG. 1
Description: (§1) Double transgenic rTg4510 mice are an aggressive Tauopathy model expressing the full-length human Tau carrying the P301L mutation (Tau4R0N-P301L) under the control of the tetracycline-inducible CaMKII promoter (Ramsden et al., J. Neurosci., 2005⋅25(46):10637-10647). Wild-type animals and single transgenic mice expressing only the tetracycline-controlled transactivator (tTA) were used as genotype controls. The study comprised 6 treatment groups (n=20 mice/group) with the following group distribution (see Table 5). Compounds or vehicle control were administered once daily by gavage for 12.5 weeks starting at the age of 5.5 weeks. The Morris Water Maze (MWM) behavioral test was performed after 12.5 weeks of treatment over 5 consecutive days. During MWM testing daily dosing was continued. Behavioral testing (MWM) was performed only on female mice (around n=11 female/group). […]
The MWM was performed in a circular tank, measuring 48″ in diameter. […] Trials were video recorded and analyzed by a computer program (WaterMaze; Actimetrics, Wilmette, Ill.). […] Percent time spent in each quadrant (target, left and right adjacent, and opposite) were calculated for probe trials. […] Data were analyzed by 2-way ANOVA followed by post-hoc comparisons and shown statistics refers to differences compared to vehicle treated rTg4510 mice.

misfolded Tau (MC1) = target: T1, misfolded Tau (MC1) (Homo sapiens, UniProt P10636, P618L); assay: Misfolded Tau by MC1 histology, study of Example 1 and Example 12; details: rTg4510 mice, once daily by gavage 12.5 weeks; Example 1 at 7 and 20 mg/kg, Example 12 at 20 mg/kg; vs vehicle treated rTg4510; FIG. 2B
T1 construct: expressing the full-length human Tau carrying the P301L mutation (Tau4R0N-P301L); from tissue; host or cells: brain (cortex) of double transgenic rTg4510 mice
T1 sequence (P10636 1-383 isoform P10636-6 P243L): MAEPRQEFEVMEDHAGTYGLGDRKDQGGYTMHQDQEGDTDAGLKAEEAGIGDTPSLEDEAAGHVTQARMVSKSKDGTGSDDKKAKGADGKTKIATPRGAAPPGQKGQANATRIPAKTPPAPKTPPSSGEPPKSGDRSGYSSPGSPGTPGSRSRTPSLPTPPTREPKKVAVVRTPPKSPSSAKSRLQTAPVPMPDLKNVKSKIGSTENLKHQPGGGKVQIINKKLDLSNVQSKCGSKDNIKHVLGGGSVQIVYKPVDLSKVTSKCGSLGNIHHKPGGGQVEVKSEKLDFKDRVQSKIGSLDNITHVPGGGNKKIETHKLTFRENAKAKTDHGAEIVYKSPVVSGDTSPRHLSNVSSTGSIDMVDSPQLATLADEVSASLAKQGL
Description: as §1, with “weeks.” for “weeks. The Morris Water Maze (MWM) behavioral test was performed after 12.5 weeks of treatment over 5 consecutive days. During MWM testing daily dosing was continued. Behavioral testing (MWM) was performed only on female mice (around n=11 female/group).”
(§2) After behavioral testing, mice were deeply anesthetized by standard injectable anesthesia and transcardially perfused with cold PBS. […] Sections from 7 mice per group, excluding wild-type animals, were collected from around 10 mediolateral levels starting 0.2 mm lateral from midline, mounted on slides, and used to quantify the cortex size. […] To reduce auto-fluorescence of the tissue, sections were incubated with a solution of 0.1% Sudan Black (Sigma) in 70% ethanol for 15 minutes at room temperature, then washed four times 5 minutes in PBS, and mounted using ProLong Gold Antifade reagent (Invitrogen). Staining was visualized on the Nikon Eclipse Ti microscope, imaged using Nikon DS-Fi2 camera, and quantified using the NIS-Element AR4.13.1 software. […]

CD68 positive microglia = assay: CD68 histology (neuroinflammation), study of Example 1 and Example 12; details: rTg4510 mice, once daily by gavage 12.5 weeks; Example 1 at 7 and 20 mg/kg, Example 12 at 20 mg/kg; vs vehicle treated rTg4510; FIG. 3
Description: Double transgenic rTg4510 mice are an aggressive Tauopathy model expressing the full-length human Tau carrying the P301L mutation (Tau4R0N-P301L) under the control of the tetracycline-inducible CaMKII promoter (Ramsden et al., J. Neurosci., 2005⋅25(46):10637-10647). Wild-type animals and single transgenic mice expressing only the tetracycline-controlled transactivator (tTA) were used as genotype controls. The study comprised 6 treatment groups (n=20 mice/group) with the following group distribution (see Table 5). Compounds or vehicle control were administered once daily by gavage for 12.5 weeks starting at the age of 5.5 weeks. The Morris Water Maze (MWM) behavioral test was performed after 12.5 weeks of treatment over 5 consecutive days. During MWM testing daily dosing was continued. Behavioral testing (MWM) was performed only on female mice (around n=11 female/group). Measurements of cortical atrophy and histology for misfolded Tau (MC1) and CD68 were performed on 7 animals/group excluding wild-type animals.
A systematic random set of sections for five sagittal sections per animal (a total of 175 sections) was used for CD68 histological staining. […] Data were analyzed by 1-way ANOVA followed by post-hoc comparisons and shown statistics refers to differences compared to vehicle treated rTg4510 mice.

rTg4510 mice [2] = assay: Cortex size (cortical atrophy), study of Example 1 and Example 12; details: once daily by gavage 12.5 weeks, Example 1 at 7 and 20 mg/kg, Example 12 at 20 mg/kg, vs vehicle treated rTg4510, FIG. 2A
Description: as §1, with “weeks.” for “weeks. The Morris Water Maze (MWM) behavioral test was performed after 12.5 weeks of treatment over 5 consecutive days. During MWM testing daily dosing was continued. Behavioral testing (MWM) was performed only on female mice (around n=11 female/group).”
as §2

| misfolded Tau (MC1 histology) (misfolded Tau (MC1)) | SMILES | percentage of time spent in the target quadrant (MWM probe trial) (rTg4510 mice [1]) | CD68 positive microglia (CD68 positive microglia) | cortex size (rTg4510 mice [2]) |
| --- | --- | --- | --- | --- |
| dose-dependent decrease | CC(C)N1CCc2c(c3ccc(Nc4ccc5nc(N6CCOCC6)sc5c4)nc3n2C)C1 [Example 1] | dose-dependent increase | decrease | dose-dependent increase |
| significant decrease | CN(C)[C@@H]1CCc2c(c3ccc(Nc4ccc5nc(N6CCOCC6)sc5c4)nc3n2C)C1 [Example 12] | significant increase | significant decrease | significant increase |
